The test system of data set [1] is anaesthetised rats, induced infarction, VF. To be noted: for VF-free survival after 30 minutes: 2 mg/kg bolus and 0.5 mg/kg/min infusion, IV before induced infarction, control 0%.
Description: Method: • Randomized, blinded and fully powered trial • Groups of n=6 anaesthetised rats • Test solutions delivered by IV to rat tail vein before induced infarction
For the next data set, the system named is Langendorff preparation. To be noted: cited from earlier work; for inhibition of VF: administered before or after ischaemia onset, Langendorff preparation.
Another data set relates to Rat isolated heart. The data set can be described thus: Rat isolated heart, 30 min regional ischaemia (coronary ligation), VF incidence (Example 2). The following applies: for reduction of incidence of ischaemia-induced VF: 30 min regional ischaemia, test solutions 15 μM and 150 μM. The protocol: Model Choice: • Rat isolated heart, 30 min regional ischaemia (coronary ligation) • High baseline susceptibility to VF • Scope for detection of VF suppression by drugs

Data set [2] relates to pentobarbitone anaesthetized rats. The following applies: 60 mg/kg i.v. over 20 minutes. The protocol: A study was carried out to assess tolerability in pentobarbitone anaesthetized rats.
In data set [3] the test system is arrhythmias which occur early after occlusion of the left coronary artery. The protocol: Groups of female rats, each in the weight range of 200-300 g, were studied.
The protocol used followed that used in many previous studies seeking dose-related data for novel compounds and reference drugs.
Five minutes after the start of drug delivery the left main coronary artery was occluded (J Mol Cell Cardiol 19: 399-419 1987). This caused a region of ischaemia (verified by the occluded zone, OZ) which was maintained for the duration of the observation period (30 minutes) during which severe arrhythmias caused by the resultant cardiac ischaemia occur (J Mol Cell Cardiol 19: 399-419 1987).
This study was not randomized but was progressed from a low dose to a high dose.
Outcomes were evaluated versus a historical data base of 140 rats treated identically (0.8% saline infusion and coronary artery ligation).
Procedures: • From the ECG, the PR and QT and heart rate were determined. • From a femoral artery catheter, blood pressure (BP) was monitored. • Arrhythmic Score (AS) was determined by counting the number of ventricular premature beats (VPBs) and the occurrence of ventricular tachycardia (VT) and fibrillation (VF) (Cardiovasc Res 22: 656-665, 1988). • Occlusion Zone (OZ) was measured by weight (g) using a dye exclusion method (J Mol Cell Cardiol 19: 399-419 1987).

Data set [4] has as its system anaesthetised rats, myocardial infarction.
Data set [5] deals with pentobarbitone anaesthetized mice. To be noted: bolus dose of 100 mg/kg i.v. An excerpt:
An initial toxicity study was undertaken in pentobarbitone anaesthetized mice.

The test system of data set [6] is patients at high risk of VT or VF following myocardial infarction. The following applies: cited from earlier work.
Where [7] appears, read: LNO 3 mg/kg total dose i.v. over 20 min, group mean.
Where [8] appears, read: LNO 10 mg/kg total dose i.v. over 20 min, group mean.
The mark [9] stands for this setting: LNO 10 mg/kg total dose i.v. over 20 min, individual rat.
[10] abbreviates: LNO 30 mg/kg total dose i.v. over 20 min, group mean.
Setting [11] is: LNO 100 mg/kg total dose i.v. over 20 min, group mean.

SMILES strings stand for the structures. Values joined by “and” are separate entries in the source; they are usually repeats but may differ in a detail not shown here. Equal values may be shown once. Read-outs that look alike come from different tables or passages of the source.

With `CCN(CC)CC(=O)Nc1c(C)cccc1C` [lidocaine, reference compound], in data set [1], the “VF-free survival after 30 minutes” value amounted to 67%. Also, in data set [1] (anaesthetised rats, IV), the bradyarrhythmias result is recorded as “led to bradyarrhythmias” and the “effectiveness against VF” value was “effective”. Further, the “inhibition of VF” value in the data set with Langendorff preparation was “equi-effective”. In the data set with Rat isolated heart (15 μM, during 30 min ischaemia), the “PR interval versus control” value is on record as “higher”. Moreover, the “reduction of incidence of ischaemia-induced VF” value in the data set with Rat isolated heart (isolated rat heart) is listed as “equally effective”. Also, the “effect on PR” value in the data set on Rat isolated heart (isolated rat heart, conclusion) is “did show an impact”.
Turning to `CC[N+]([O-])(CC)CC(=O)Nc1c(C)cccc1C` [LNO, lidocaine N-oxide], the “tolerability of the dose” value in data set [2] is given as “tolerated”; in data set [5], “well tolerated”. Besides, the “VF-free survival after 30 minutes” value in data set [1] is recorded as 67%. In addition, in data set [1] (anaesthetised rats, IV), the “effectiveness against VF” value is listed as “effective”. Moreover, the “time post-infarction before a VF event” value in data set [1] (anaesthetised rats, IV) was “longer time”. Further, in data set [1] (rat, in vivo, iv), the bradyarrhythmias entry is “did not”. The “therapeutic window from the threshold effective dose” value in data set [3] (3 mg/kg to 30 mg/kg i.v.) was “at least ten-fold”. The “AS (arrhythmia score)” value was 4.5 in data set [3] (setting [7]); 7 and 3 (2×) and 5 in data set [3] (LNO 3 mg/kg total dose i.v. over 20 min, individual rat); 1.67 in data set [3] (setting [8]); 1 (2×) and 3 in data set [3] (setting [9]); 2 in data set [3] (setting [10]); 2.67 in data set [3] (setting [11]). The “VF (ventricular fibrillation)” value in data set [3] (setting [7]) is 0.25 number of episodes; in data set [3] (setting [9]), 0 number of episodes; in data set [3] (setting [10]) it was 2 number of episodes; in data set [3] (setting [11]), 0.33 number of episodes. Also, the “VT (ventricular tachycardia)” value in data set [3] (setting [7]) is 7.75 number of episodes; in data set [3] (setting [8]), 3 number of episodes; in data set [3] (setting [10]) it was 22 number of episodes; in data set [3] (setting [11]) it was 3.67 number of episodes. In addition, in data set [3] (LNO 100 mg/kg total dose i.v. over 20 min, individual rat), the “Occl 10’ BP (blood pressure)” value is “Dead”. For the same molecule, the “arrhythmia score (AS) versus control” value in data set [3] (each tested dose: 3, 10, 30 and 100 mg/kg, 30 min regional ischaemia, vs historical controls) is reported as “significantly reduced”. The off-target actions result in data set [3] (highest dose of LNO, 100 mg/kg) was “one death due to convulsion”. Moreover, the “dose up to which no off-target effects are seen” value in data set [3] (rat, in vivo, iv) came to 30 mg/kg. For the same molecule, the “lowest dose at which antiarrhythmic activity is seen (threshold effective dose)” value in data set [3] (regional ischaemia, i.v.) was 3 mg/kg. The same molecule came in with a survival rate in data set [4] (anaesthetised rats, LNO directly to the bloodstream prior to myocardial infarction) of 100%. The “signs of excessive reduction in contractile function, decreased heart rate, complete heart block or asystole” value in data set [4] (rat, in vivo) is recorded as “no signs”. Also, in the data set with Langendorff preparation, the “inhibition of VF” value is “equi-effective”. Also, in the data set with Langendorff preparation, the “dose-limiting bradycardia or PR interval elongation” value is listed as “didn't induce”. In the data set with Rat isolated heart, the “effect on PR” value was “did not show any effect”. Also, the “effect on heart rate” value in the data set with Rat isolated heart was “only a small effect”. Also, the “reduction of incidence of ischaemia-induced VF” value in the data set on Rat isolated heart (isolated rat heart) is “equally as effective as lidocaine”.
As to `O=C(NCC1CCCCN1)c1cc(OCC(F)(F)F)ccc1OCC(F)(F)F` (centres unmarked) [flecainide], in data set [6], the “increase in the risk of mortality” value is “three-fold”.

(Values after patent US11266613B2 (priority 2017, dated 2022).)
